Measured values taken from ChEMBL document CHEMBL3044813, “Bloodbrain barrier permeability and transport studies of JLK1486: a new antiglioblastoma drug” (Med Chem Res, 2012).
Active and inactive are the calls of the source. No cut-off for these calls is given here.

What was measured:
Blood brain barrier = assay: Permeability across blood brain barrier of Rattus norvegicus Sprague-Dawley (rat) at 10 mg/kg, iv; assay type: ADME, organism-based; parameters: dose 10 mg/kg, route intravenous; settings: in vivo
Glioma = assay: Antitumor activity against Homo sapiens (human) Glioma cells xenografted in transgenic mouse assessed as mouse survival; assay type: functional, cell-based
Brain = assay: Drug uptake in Rattus norvegicus Sprague-Dawley (rat) brain at 10 mg/kg, iv by HPLC analysis; assay type: ADME, organism-based; parameters: dose 10 mg/kg, route intravenous; settings: in vivo
[1] = molecular target: T1, ATP-dependent translocase ABCB1 (Homo sapiens, UniProt P08183); assay: Inhibition of Vinblastine-induced P-gp ATPase activity (unknown origin) at 10 uM by spectrophotometry (reference value: 42.8 nmol/mg/min)
T1 sequence (P08183 whole entry): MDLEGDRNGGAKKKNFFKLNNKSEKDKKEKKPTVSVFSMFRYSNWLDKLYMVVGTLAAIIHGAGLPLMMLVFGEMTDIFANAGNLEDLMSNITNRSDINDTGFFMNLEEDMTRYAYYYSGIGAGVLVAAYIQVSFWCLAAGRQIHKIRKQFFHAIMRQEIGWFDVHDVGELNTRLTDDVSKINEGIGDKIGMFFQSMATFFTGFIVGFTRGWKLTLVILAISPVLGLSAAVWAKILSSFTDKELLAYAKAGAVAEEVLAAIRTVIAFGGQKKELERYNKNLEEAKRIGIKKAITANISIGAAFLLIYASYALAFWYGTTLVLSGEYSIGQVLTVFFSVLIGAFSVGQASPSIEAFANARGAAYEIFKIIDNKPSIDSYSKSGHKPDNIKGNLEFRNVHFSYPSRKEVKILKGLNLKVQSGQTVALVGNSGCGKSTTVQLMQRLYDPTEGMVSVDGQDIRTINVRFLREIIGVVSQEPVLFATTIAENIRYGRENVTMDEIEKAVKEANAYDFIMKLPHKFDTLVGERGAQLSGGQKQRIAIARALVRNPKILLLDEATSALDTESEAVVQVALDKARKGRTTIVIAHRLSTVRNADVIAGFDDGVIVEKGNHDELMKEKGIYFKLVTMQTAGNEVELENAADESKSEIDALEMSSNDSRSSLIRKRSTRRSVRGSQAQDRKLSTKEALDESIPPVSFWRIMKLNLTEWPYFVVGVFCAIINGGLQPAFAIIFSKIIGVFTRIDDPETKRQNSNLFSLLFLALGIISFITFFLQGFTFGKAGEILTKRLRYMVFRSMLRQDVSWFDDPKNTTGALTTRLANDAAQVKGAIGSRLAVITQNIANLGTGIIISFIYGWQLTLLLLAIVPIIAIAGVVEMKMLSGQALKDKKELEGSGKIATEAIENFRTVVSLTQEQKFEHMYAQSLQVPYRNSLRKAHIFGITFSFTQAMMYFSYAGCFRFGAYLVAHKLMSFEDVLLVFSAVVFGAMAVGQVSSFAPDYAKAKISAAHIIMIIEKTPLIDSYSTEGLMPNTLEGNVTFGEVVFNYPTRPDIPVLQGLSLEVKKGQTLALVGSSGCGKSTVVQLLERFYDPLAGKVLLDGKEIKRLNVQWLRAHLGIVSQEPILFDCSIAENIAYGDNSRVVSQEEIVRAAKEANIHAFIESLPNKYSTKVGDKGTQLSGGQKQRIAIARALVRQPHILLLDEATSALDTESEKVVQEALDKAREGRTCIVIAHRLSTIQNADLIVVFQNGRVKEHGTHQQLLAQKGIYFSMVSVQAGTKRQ

[2] = molecular target: T1, ATP-dependent translocase ABCB1; assay: Inhibition of Verapamil-induced P-gp ATPase activity (unknown origin) at 10 uM by spectrophotometry (reference value: 90.7 nmol/mg/min)
[3] = molecular target: T1, ATP-dependent translocase ABCB1; assay: Modulation of P-gp ATPase activity (unknown origin) at 10 uM by spectrophotometry (RvB = 30.2 nmol/mg/min)
[4] = molecular target: T1, ATP-dependent translocase ABCB1; assay: Modulation of P-gp ATPase activity (unknown origin) at 1 uM by spectrophotometry (RvB = 30.2 nmol/mg/min)
[5] = molecular target: T1, ATP-dependent translocase ABCB1; assay: Inhibition of Progesterone-induced P-gp ATPase activity (unknown origin) at 1 uM by spectrophotometry (reference value: 61.5 nmol/mg/min)
[6] = molecular target: T1, ATP-dependent translocase ABCB1; assay: Inhibition of Progesterone-induced P-gp ATPase activity (unknown origin) at 10 uM by spectrophotometry (reference value: 61.5 nmol/mg/min)
Cerebrospinal fluid = assay: Drug uptake in Rattus norvegicus Sprague-Dawley (rat) CSF at 10 mg/kg, iv after 1 hr by HPLC analysis; assay type: ADME, organism-based; parameters: dose 10 mg/kg, route intravenous; settings: in vivo
[7] = molecular target: T1, ATP-dependent translocase ABCB1; assay: Inhibition of Verapamil-induced P-gp ATPase activity (unknown origin) at 1 uM by spectrophotometry (reference value: 90.7 nmol/mg/min)
[8] = molecular target: T1, ATP-dependent translocase ABCB1; assay: Inhibition of Vinblastine-induced P-gp ATPase activity (unknown origin) at 1 uM by spectrophotometry (reference value: 42.8 nmol/mg/min)

SMILES | pBBB (Blood brain barrier) [×10⁻³ cm/s] | Activity (Glioma) | Drug uptake (Brain) [%] | Activity [1] [nmol/mg/min] | Activity [2] [nmol/mg/min] | Activity [3] [nmol/mg/min] | Activity [4] [nmol/mg/min] | Activity [5] [nmol/mg/min] | Activity [6] [nmol/mg/min] | Drug uptake (Cerebrospinal fluid) [%] | Activity [7] [nmol/mg/min] | Activity [8] [nmol/mg/min]
Cn1nnc2c(C(N)=O)ncn2c1=O [TEMOZOLOMIDE] | 2.7 | Active |  |  |  |  |  |  |  |  |  | 
Oc1ccc(CN(Cc2ccc(C(F)(F)F)cc2)Cc2ccc(O)c3ncccc23)c2cccnc12 |  | Active | 2.2 | 30.8 | 77.1 | 33.1 | 31.3 | 54.8 | 51.8 | 0.037 | 84.5 | 34.3
